# Experimental data: patent US9096593B2, “Compounds and methods for kinase modulation, and indications therefor” (Plexxikon Inc., priority 2009, dated 2015)
# Key:
# BCR-KIT/BaF3 cells = BCR-KIT/BaF3 cells (Homo sapiens, UniProt P10721); assay: BCR-KIT/BaF3 cell proliferation assay (ATPlite); assay type: cell-based; settings: read-out: BCR/BaF3 (IC50 μM) Kit
# Method in brief: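 BCR-KIT/BaF3 cells plated at 10,000/well in G418-containing medium without IL-3/WEHI; MV-4-11 at 25,000/well in medium with 10% FBS. Compound given as 8-point 1:3 titration, top 10 μM final, 3 days at 37 °C. Viability read as ATPlite luminescence; IC50 from concentration curve.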
# [1] = Turbidity assay of relative solubility in aqueous buffers; assay type: physicochemical; settings: for turbidity threshold (L, M, H) 1.4: pH 1.4 as headed (method: SGF pH 1.5); for turbidity threshold (L, M, H) 4.5: pH 4.5 (SIF); for turbidity threshold (L, M, H) 6.8: pH 6.8 (SIF); for turbidity threshold (L, M, H) 7.4: pH 7.4 (HEPES)
# Method in brief: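 Turbidity was read spectrophotometrically at 490, 535 and 650 nm, and the endpoint is the concentration where OD passes 0.01, as the mean of the three wavelengths. Compounds came from 25 mM DMSO stock in 1:1 serial dilutions, added to HEPES pH 7.4, SIF pH 6.8 or 4.5 (0.05M NaH2PO4), or SGF pH 1.5 (0.5M NaCl).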
# Chain of BCR-KIT/BaF3 cells (P10721 26-976 limits assumed, change not shown): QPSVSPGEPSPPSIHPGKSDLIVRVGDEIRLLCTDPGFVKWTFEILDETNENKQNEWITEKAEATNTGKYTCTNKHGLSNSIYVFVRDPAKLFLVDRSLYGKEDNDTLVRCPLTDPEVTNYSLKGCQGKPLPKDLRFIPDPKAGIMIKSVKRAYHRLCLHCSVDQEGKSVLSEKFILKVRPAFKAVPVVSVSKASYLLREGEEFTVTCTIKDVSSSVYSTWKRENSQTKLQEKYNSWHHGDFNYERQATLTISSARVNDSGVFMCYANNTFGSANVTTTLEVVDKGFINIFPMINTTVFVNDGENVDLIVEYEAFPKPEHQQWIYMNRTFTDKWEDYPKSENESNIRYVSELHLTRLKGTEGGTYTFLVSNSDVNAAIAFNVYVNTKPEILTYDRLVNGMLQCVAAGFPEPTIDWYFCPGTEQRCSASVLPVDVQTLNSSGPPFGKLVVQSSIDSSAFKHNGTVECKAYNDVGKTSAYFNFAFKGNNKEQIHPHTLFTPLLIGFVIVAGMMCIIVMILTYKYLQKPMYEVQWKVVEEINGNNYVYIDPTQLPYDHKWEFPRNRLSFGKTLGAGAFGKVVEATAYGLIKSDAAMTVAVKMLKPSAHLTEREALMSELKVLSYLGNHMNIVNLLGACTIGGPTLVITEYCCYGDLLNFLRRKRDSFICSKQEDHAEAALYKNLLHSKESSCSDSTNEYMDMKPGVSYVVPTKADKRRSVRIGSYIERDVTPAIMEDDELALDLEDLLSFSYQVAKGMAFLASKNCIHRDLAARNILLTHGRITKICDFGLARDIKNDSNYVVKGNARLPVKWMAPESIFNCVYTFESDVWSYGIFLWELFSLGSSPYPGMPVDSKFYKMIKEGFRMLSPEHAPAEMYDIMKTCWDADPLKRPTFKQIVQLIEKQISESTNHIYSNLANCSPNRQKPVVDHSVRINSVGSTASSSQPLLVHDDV
SMILES,IC50 (BCR-KIT/BaF3 cells) [µM],"turbidity threshold (L, M, H) 1.4 [1]","turbidity threshold (L, M, H) 4.5 [1]","turbidity threshold (L, M, H) 6.8 [1]","turbidity threshold (L, M, H) 7.4 [1]"
"Fc1ccc(CNc2ccc(Cc3c[nH]c4ncc(Cl)cc34)cn2)cn1 [Compound P-2004, [5-(5-chloro-1H-pyrrolo[2,3-b]pyridin-3-ylmethyl)-pyridin-2-yl]-(6-fluoro-pyridin-3-ylmethyl)-amine]",< 0.1,H (high solubility if the threshold concentration is >250 μM),M (moderate solubility if the threshold concentration is 31.3 μM to 250 μM),M (moderate solubility if the threshold concentration is 31.3 μM to 250 μM),M (moderate solubility if the threshold concentration is 31.3 μM to 250 μM)
"Cc1cnc2[nH]cc(Cc3ccc(NCc4ccc(C(F)(F)F)nc4)nc3)c2c1 [Compound P-2019, [5-(5-Methyl-1H-pyrrolo[2,3-b]pyridin-3-ylmethyl)-pyridin-2-yl]-(6-trifluoromethyl-pyridin-3-ylmethyl)-amine]",< 0.1,H (high solubility if the threshold concentration is >250 μM),M (moderate solubility if the threshold concentration is 31.3 μM to 250 μM),M (moderate solubility if the threshold concentration is 31.3 μM to 250 μM),L (low solubility if the threshold concentration is <31.3 μM)
"Fc1cncc(CNc2ccc(Cc3c[nH]c4ncc(Cl)cc34)c(F)n2)c1 [Compound P-2001, [5-(5-Chloro-1H-pyrrolo[2,3-b]pyridin-3-ylmethyl)-6-fluoro-pyridin-2-yl]-(5-fluoro-pyridin-3-ylmethyl)-amine]",> 0.1,M (moderate solubility if the threshold concentration is 31.3 μM to 250 μM),L (low solubility if the threshold concentration is <31.3 μM),L (low solubility if the threshold concentration is <31.3 μM),L (low solubility if the threshold concentration is <31.3 μM)
"COc1ccc(CNc2ccc(Cc3c[nH]c4ncc(F)cc34)c(F)n2)cn1 [Compound P-1622, [6-Fluoro-5-(5-fluoro-1H-pyrrolo[2,3-b]pyridin-3-ylmethyl)-pyridin-2-yl]-(6-methoxy-pyridin-3-ylmethyl)-amine]",> 0.1,H (high solubility if the threshold concentration is >250 μM),M (moderate solubility if the threshold concentration is 31.3 μM to 250 μM),M (moderate solubility if the threshold concentration is 31.3 μM to 250 μM),M (moderate solubility if the threshold concentration is 31.3 μM to 250 μM)
Clc1cnc2[nH]cc(Cc3ccc(NCc4ccc(Cl)nc4)nc3)c2c1 [Compound P-2003],< 0.1,H (high solubility if the threshold concentration is >250 μM),M (moderate solubility if the threshold concentration is 31.3 μM to 250 μM),L (low solubility if the threshold concentration is <31.3 μM),L (low solubility if the threshold concentration is <31.3 μM)
"COc1cc(CNc2ccc(Cc3c[nH]c4ncc(C)cc34)c(F)n2)c(F)cn1 [Compound P-2071, (5-Fluoro-2-methoxy-pyridin-4-ylmethyl)-[6-fluoro-5-(5-methyl-1H-pyrrolo[2,3-b]pyridin-3-ylmethyl)-pyridin-2-yl]-amine]",> 0.1,M (moderate solubility if the threshold concentration is 31.3 μM to 250 μM),L (low solubility if the threshold concentration is <31.3 μM),L (low solubility if the threshold concentration is <31.3 μM),L (low solubility if the threshold concentration is <31.3 μM)
"COc1ncc(F)cc1CNc1ccc(Cc2c[nH]c3ncc(NC(C)=O)cc23)c(F)n1 [Compound P-1669, N-(3-{2-fluoro-6-[(5-fluoro-2-methoxy-pyridin-3-ylmethyl)-amino]-pyridin-3-ylmethyl}-1H-pyrrolo[2,3-b]pyridin-5-yl)-acetamide]",> 0.1,M (moderate solubility if the threshold concentration is 31.3 μM to 250 μM),M (moderate solubility if the threshold concentration is 31.3 μM to 250 μM),M (moderate solubility if the threshold concentration is 31.3 μM to 250 μM),M (moderate solubility if the threshold concentration is 31.3 μM to 250 μM)
"COc1ccc(CNc2ccc(Cc3c[nH]c4ncc(C)cc34)c(F)n2)cn1 [Compound P-2029, [6-Fluoro-5-(5-methyl-1H-pyrrolo[2,3-b]pyridin-3-ylmethyl)-pyridin-2-yl]-(6-methoxy-pyridin-3-ylmethyl)-amine]",> 0.1,H (high solubility if the threshold concentration is >250 μM),M (moderate solubility if the threshold concentration is 31.3 μM to 250 μM),M (moderate solubility if the threshold concentration is 31.3 μM to 250 μM),M (moderate solubility if the threshold concentration is 31.3 μM to 250 μM)
"COc1ccc(CNc2ncc(Cc3c[nH]c4ncc(C)cc34)cc2C)cn1 [Compound P-1554, (6-Methoxy-pyridin-3-ylmethyl)-[3-methyl-5-(5-methyl-1H-pyrrolo[2,3-b]pyridin-3-ylmethyl)-pyridin-2-yl]-amine]",> 0.1,H (high solubility if the threshold concentration is >250 μM),H (high solubility if the threshold concentration is >250 μM),M (moderate solubility if the threshold concentration is 31.3 μM to 250 μM),M (moderate solubility if the threshold concentration is 31.3 μM to 250 μM)
"CS(=O)(=O)Nc1cnc2[nH]cc(Cc3ccc(NCc4ccc(Cl)nc4)nc3F)c2c1 [Compound P-1679, N-(3-{6-[(6-Chloro-pyridin-3-ylmethyl)-amino]-2-fluoro-pyridin-3-ylmethyl}-1H-pyrrolo[2,3-b]pyridin-5-yl)-methanesulfonamide]",> 0.1,M (moderate solubility if the threshold concentration is 31.3 μM to 250 μM),L (low solubility if the threshold concentration is <31.3 μM),L (low solubility if the threshold concentration is <31.3 μM),L (low solubility if the threshold concentration is <31.3 μM)
"COc1ccc(CNc2ncc(Cc3c[nH]c4ncc(C)cc34)cc2F)cn1 [Compound P-1562, [3-Fluoro-5-(5-methyl-1H-pyrrolo[2,3-b]pyridin-3-ylmethyl)-pyridin-2-yl]-(6-methoxy-pyridin-3-ylmethyl)-amine]",> 0.1,H (high solubility if the threshold concentration is >250 μM),H (high solubility if the threshold concentration is >250 μM),M (moderate solubility if the threshold concentration is 31.3 μM to 250 μM),M (moderate solubility if the threshold concentration is 31.3 μM to 250 μM)
"COc1cnc2[nH]cc(Cc3ccc(NCc4ccc(Cl)cc4)nc3F)c2c1 [Compound P-2032, (4-Chloro-benzyl)-[6-fluoro-5-(5-methoxy-1H-pyrrolo[2,3-b]pyridin-3-ylmethyl)-pyridin-2-yl]-amine]",< 0.1,M (moderate solubility if the threshold concentration is 31.3 μM to 250 μM),L (low solubility if the threshold concentration is <31.3 μM),L (low solubility if the threshold concentration is <31.3 μM),L (low solubility if the threshold concentration is <31.3 μM)
"COc1ncc(CNc2ncc(Cc3c[nH]c4ncc(C)cc34)cn2)cc1F [Compound P-2073, (5-Fluoro-6-methoxy-pyridin-3-ylmethyl)-[5-(5-methyl-1H-pyrrolo[2,3-b]pyridin-3-ylmethyl)-pyrimidin-2-yl]-amine]",> 0.1,H (high solubility if the threshold concentration is >250 μM),M (moderate solubility if the threshold concentration is 31.3 μM to 250 μM),M (moderate solubility if the threshold concentration is 31.3 μM to 250 μM),M (moderate solubility if the threshold concentration is 31.3 μM to 250 μM)
"Cc1cnc2[nH]cc(Cc3ccc(NCc4ccc(C(F)(F)F)nc4)nc3F)c2c1 [Compound P-2031, [6-Fluoro-5-(5-methyl-1H-pyrrolo[2,3-b]pyridin-3-ylmethyl)-pyridin-2-yl]-(6-trifluoromethyl-pyridin-3-ylmethyl)-amine]",> 0.1,M (moderate solubility if the threshold concentration is 31.3 μM to 250 μM),L (low solubility if the threshold concentration is <31.3 μM),L (low solubility if the threshold concentration is <31.3 μM),L (low solubility if the threshold concentration is <31.3 μM)
